According to patent US20170042780A1, “DENTIFRICE COMPOSITION WITH GUM BLEEDING RELIEF EFFICACY” (COLGATE-PALMOLIVE COMPANY, priority 2015, published 2017):

Test system: experimental animal plasma
Experiment: In-vitro Prothrombin Time (PT) Test
Format: biochemical
Settings: for Prothrombin Time: coagulant ingredient 1 weight % in water, 0.05 mL sample + 0.1 mL plasma, 37° C., thromboplastin added, mean of 10 repeats
Method: An In-vitro Prothrombin Time (PT) Test has been designed to test the coagulant efficacy (see Luz, L. et at., International Journal of Biological Macromolecules, 58 (2013), p. 31-36). […] The experimental methodology used was: […] When testing the “Toothpastes” in Table 2, below, a toothpaste slurry was prepared by mixing 1 part of the toothpaste under test with 2 parts DI water (all parts being parts by weight); then the supernatant was obtained by centrifuging the slurry for 20 mins at 8000 rpm. 0.1 mL of experimental animal plasma was placed in each testing tube (animal blood samples used in the experiment were waste products, and the animals were otherwise used for food). 0.05 mL of the test samples (0.05 mL of DI water or saline solution in control group) were added to separate tubes and mixed with the plasma. The mixtures were then heated in a water bath at 37° C. for 3 min, then 0.2 mL of thromboplastin (which had been preheated to 37° C.) was added to each testing tube and the contents mixed. A stopwatch was started immediately upon adding the thromboplastin to record the coagulation time (Prothrombin Time).

NCc1ccc(C(=O)O)cc1 [4-(aminomethyl)benzoic acid]
Prothrombin Time: 11.14 s | clotting time compared with the controls (DI water and saline solution) (ingredient 1 weight % in water): significantly lower clotting time than the controls | difference in clotting time between tranexamic acid and 4-(aminomethyl) benzoic acid (ingredients 1 weight % in water): No significant difference

NC[C@H]1CC[C@H](C(=O)O)CC1 [Tranexamic acid, tranexamic acid, reference compound]
Prothrombin Time: 11.66 s
